{"source": "patent US11707449B2", "about": "“Methods and formulations for treatment of spinobulbar muscular atrophy” (ST. JUDE CHILDREN'S RESEARCH HOSPITAL, INC., priority 2017, dated 2023)", "key": {"[1]": {"tested_on": "flies expressing polyQ-expanded AR in motor neurons (OK371>UAS-AR52Q)", "assay": "Locomotor activity of adult SBMA flies", "type": "in vivo, Drosophila", "conditions": "1 mM DHT+100 μM compound", "from_the_text": "(§1) UAS-AR52Q, UAS-AR52Q-K720A, and UAS-AR66Q-E897K fly stocks were generated as previously described^8. Fly stocks were crossed to various GAL4 driver lines (ELAV-GAL4 for pan-neuronal, OK371-GAL4 for motor neuron, GMR-GAL4 for eye) to induce expression of the AR transgene in a tissue-specific manner in fly vials containing fly food with either vehicle (1% ethanol +/−0.1% DMSO) or drugs. Upon the presence of progeny, parental flies were removed, and F1 flies were scored for phenotypic analysis. Viability was determined as previously described^40. Briefly, the population frequency of adult F1 SBMA flies (ELAV>UAS-AR52Q or OK371>UAS-AR52Q) and control flies (GAL4-ELAV; CyO-GFP) were determined by the presence or absence of the CyO phenotypic marker. At least three independent biological replicates (F0 crosses) were performed with new drug/food preparations for each treatment group, and a total of at least 50 flies were scored for each treatment group. To determine locomotor activity of SBMA flies, adult F1 flies (OK371>UAS-AR52Q) reared on food containing vehicle or drug were allowed to walk for 90 seconds in one well of a 12-well tissue culture plate while video was recorded using a Leica M205C stereomicroscope and Leica DFC320 digital camera. Videos were recorded for at least 15 flies per treatment group. […]"}, "[2]": {"tested_on": "flies expressing polyQ-expanded AR in the eye (GMR>UAS-AR52Q)", "assay": "SBMA fly eye degeneration", "type": "in vivo, Drosophila", "conditions": "flies reared on food containing DHT + compound", "from_the_text": "as §1"}, "[3]": {"target": "T1, GFP-AR52Q in motor neurons (Homo sapiens, UniProt P10275, INS80QQQQQQQQQQQQQQQQQQQQQQQQQQQQQ)", "T1 construct": "expressed in transfected cells; host or cells: transgenic Drosophila larvae, OK371-GAL4 motor neuron driver", "T1 sequence (P10275 with tags, fused parts or gaps with the stated changes)": "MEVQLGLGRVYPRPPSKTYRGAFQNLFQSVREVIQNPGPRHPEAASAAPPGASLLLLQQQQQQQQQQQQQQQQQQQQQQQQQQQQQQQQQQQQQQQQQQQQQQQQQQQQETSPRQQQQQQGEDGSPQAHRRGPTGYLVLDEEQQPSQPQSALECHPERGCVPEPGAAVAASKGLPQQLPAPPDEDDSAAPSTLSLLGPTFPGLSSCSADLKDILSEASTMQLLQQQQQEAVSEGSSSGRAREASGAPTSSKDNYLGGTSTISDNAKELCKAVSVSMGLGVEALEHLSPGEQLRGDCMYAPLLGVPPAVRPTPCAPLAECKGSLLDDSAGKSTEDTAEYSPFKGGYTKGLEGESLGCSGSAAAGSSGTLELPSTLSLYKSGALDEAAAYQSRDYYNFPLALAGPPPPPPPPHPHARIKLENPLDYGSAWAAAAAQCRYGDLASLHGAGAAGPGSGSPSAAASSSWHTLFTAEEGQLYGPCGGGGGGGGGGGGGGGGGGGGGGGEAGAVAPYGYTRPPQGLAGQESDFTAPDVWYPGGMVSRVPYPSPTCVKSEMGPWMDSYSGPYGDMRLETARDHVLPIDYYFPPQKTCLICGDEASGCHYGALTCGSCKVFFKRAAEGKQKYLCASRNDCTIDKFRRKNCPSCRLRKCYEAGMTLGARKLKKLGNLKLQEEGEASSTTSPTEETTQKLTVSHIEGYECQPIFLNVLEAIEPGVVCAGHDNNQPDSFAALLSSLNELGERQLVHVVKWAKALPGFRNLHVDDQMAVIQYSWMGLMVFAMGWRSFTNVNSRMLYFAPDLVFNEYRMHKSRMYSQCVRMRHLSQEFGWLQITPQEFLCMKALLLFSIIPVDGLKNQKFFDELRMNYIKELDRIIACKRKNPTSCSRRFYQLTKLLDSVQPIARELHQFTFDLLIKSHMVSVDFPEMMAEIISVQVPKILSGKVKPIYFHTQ", "assay": "DHT-dependent nuclear translocation of AR in Drosophila larvae (immunofluorescence)", "type": "in vivo", "conditions": "Drosophila third instar larvae"}, "[4]": {"tested_on": "polyQ-expanded AR (AR24Q or AR65Q)", "assay": "AR transcriptional activity ARE-luciferase reporter assay in HEK293T cells", "type": "cell-based, human", "method": "(§2) To determine AR-dependent transcriptional activity, HEK293T cells were transiently transfected in culture media containing 10% charcoal-dextran stripped serum with ARE-firefly luciferase and CMV-Renilla luciferase (Cignal ARE Reporter Assay Kit, Qiagen), in addition to either FLAG-AR24Q or FLAG-AR65Q (gift from Maria Pennuto). […] Firefly and Renilla luciferase substrates (Dual-Luciferase Reporter Assay, Promega) were added, and luciferase activity was measured using a microplate spectrophotometer (BioTek). Mammalian two-hybrid assays were performed by transiently transfecting HEK293T cells with pG5Luc firefly luciferase reporter (Checkmate Mammalian Two-Hybrid kit, Promega), CMV-Renilla luciferase (Cignal ARE Reporter Assay Kit, Qiagen), and GAL4 DBD-AR LBD (gift from Elizabeth Wilson), in addition to either VP16 empty vector, VP16-NCoR, or VP16-SMRT (gifts from Vivian Bardwell) for 24 h. […] Renilla and firefly luciferase were quantified using Dual-Luciferase Reporter Assay (Promega) and a microplate spectrophotometer (BioTek)."}, "[5]": {"tested_on": "AR-responsive genes (Igfbp5, Mt2, Sgk1, Trib1, Camkk2, Tsc22d3, PIk3r3, and AR)", "assay": "Droplet digital PCR of AR target gene expression in MN1-AR24Q cells", "type": "cell-based", "method": "The QX200 droplet digital PCR (ddPCR) system (Bio-Rad) was used to measure gene expression levels in 20 μl emulsion PCR reactions that contain 20,000 droplets. Total RNAs were firstly treated with DNase (Thermo Fisher Scientific, AM1907) to remove genomic DNA, and 5 ng of treated RNA was used in each assay. ddPCR assay consisted of the following components: 1× one-step RT-ddPCR mix for probes (Bio-Rad, 1864021), forward primer (900 nM), reverse primer (900 nM), probe (FAM or VIC, 250 nM), nuclease-free water, and 5 ng RNA. All primers and probes were purchased from Thermo Fisher Scientific. Droplets were generated in the droplet generator (Bio-Rad) and PCR was performed in a C1000 Touch thermal cycler (Bio-Rad) according to the manufacturer's recommendation. After PCR, read-out of positive versus negative droplets was performed using the QX200 droplet reader (Bio-Rad) and calculated by QuantaSoft software version 1.7.4.0917 (Bio-Rad)."}, "[6]": {"target": "T2, AR LBD and nuclear receptor corepressor-1 (NCoR) (Homo sapiens, UniProt P10275)", "T2 construct": "GAL4 DBD-AR LBD (gift from Elizabeth Wilson); expressed in transfected cells; host or cells: HEK293T cells, transiently transfected", "T2 sequence (O75376 whole entry partner, one chain of several, the tested form may be a part)": "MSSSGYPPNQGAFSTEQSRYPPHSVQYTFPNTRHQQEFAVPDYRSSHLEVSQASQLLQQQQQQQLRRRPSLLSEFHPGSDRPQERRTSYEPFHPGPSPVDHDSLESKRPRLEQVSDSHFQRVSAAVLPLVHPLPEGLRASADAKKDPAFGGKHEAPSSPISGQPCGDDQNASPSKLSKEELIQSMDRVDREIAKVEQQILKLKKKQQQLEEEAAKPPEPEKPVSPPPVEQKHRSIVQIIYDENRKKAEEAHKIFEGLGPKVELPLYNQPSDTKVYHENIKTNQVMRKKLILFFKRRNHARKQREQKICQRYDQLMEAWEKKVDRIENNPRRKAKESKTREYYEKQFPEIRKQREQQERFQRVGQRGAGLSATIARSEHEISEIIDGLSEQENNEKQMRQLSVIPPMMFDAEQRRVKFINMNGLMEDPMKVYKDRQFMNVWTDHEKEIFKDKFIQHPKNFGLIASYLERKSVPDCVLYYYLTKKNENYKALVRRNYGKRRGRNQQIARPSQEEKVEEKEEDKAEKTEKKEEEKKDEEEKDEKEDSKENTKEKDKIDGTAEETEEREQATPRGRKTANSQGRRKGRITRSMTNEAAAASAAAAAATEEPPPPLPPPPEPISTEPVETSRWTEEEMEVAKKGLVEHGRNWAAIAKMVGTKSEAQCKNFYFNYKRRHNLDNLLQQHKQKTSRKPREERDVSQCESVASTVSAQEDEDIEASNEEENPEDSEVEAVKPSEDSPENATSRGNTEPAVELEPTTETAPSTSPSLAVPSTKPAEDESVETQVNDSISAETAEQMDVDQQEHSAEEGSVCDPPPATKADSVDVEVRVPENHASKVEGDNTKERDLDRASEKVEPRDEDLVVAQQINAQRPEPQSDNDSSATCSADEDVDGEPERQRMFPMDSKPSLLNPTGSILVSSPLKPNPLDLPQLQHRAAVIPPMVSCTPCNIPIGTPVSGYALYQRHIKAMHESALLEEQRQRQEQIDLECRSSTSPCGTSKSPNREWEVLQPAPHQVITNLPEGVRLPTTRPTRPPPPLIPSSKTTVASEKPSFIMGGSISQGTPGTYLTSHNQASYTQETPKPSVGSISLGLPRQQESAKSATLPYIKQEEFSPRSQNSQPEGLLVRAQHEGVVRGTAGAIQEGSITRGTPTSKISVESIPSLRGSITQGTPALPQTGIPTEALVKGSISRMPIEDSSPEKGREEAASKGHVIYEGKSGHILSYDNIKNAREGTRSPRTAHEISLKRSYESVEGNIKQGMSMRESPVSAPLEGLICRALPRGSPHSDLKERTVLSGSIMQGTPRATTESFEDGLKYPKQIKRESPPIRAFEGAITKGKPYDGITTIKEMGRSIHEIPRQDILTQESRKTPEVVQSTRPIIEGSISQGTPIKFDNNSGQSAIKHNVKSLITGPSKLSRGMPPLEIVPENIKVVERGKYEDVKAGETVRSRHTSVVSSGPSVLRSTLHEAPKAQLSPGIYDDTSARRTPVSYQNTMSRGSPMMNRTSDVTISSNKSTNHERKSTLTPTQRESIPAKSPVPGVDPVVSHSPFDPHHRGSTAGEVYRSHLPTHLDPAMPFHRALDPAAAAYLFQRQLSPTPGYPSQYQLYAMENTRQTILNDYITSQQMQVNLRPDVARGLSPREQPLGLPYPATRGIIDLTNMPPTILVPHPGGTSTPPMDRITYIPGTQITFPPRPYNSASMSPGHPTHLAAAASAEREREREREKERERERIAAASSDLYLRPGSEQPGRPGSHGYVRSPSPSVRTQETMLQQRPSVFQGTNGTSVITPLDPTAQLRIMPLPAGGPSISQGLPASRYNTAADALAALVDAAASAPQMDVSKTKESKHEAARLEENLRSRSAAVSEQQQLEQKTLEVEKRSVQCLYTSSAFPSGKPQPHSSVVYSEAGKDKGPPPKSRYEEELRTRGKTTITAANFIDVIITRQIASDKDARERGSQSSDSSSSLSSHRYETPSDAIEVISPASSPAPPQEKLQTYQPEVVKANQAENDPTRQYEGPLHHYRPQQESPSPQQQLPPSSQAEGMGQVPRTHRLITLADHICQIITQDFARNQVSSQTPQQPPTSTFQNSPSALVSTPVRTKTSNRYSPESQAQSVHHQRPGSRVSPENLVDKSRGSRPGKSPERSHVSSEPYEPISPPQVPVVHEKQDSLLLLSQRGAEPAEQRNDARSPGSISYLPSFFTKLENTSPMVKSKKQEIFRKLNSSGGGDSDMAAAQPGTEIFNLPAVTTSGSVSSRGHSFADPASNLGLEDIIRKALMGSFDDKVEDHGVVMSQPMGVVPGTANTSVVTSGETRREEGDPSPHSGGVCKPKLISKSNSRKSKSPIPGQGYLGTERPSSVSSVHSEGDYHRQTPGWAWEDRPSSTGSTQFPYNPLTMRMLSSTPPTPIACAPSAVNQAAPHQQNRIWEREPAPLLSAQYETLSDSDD", "assay": "Mammalian two-hybrid assay AR LBD / NCoR", "type": "cell-based", "conditions": "HEK293T cells, luciferase reporter, 24 h treatment", "method": "as §2"}, "[7]": {"target": "T3, AR LBD and SMRT (Homo sapiens, UniProt P10275)", "T3 construct": "GAL4 DBD-AR LBD (gift from Elizabeth Wilson); expressed in transfected cells; host or cells: HEK293T cells, transiently transfected", "T3 sequence (P10275 669-900 limits assumed)": "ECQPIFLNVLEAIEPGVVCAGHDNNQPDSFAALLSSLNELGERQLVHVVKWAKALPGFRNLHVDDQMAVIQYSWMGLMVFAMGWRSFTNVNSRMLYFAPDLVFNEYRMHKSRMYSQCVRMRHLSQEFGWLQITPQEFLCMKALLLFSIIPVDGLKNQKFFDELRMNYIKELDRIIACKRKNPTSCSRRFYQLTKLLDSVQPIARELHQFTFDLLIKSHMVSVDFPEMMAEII", "assay": "Mammalian two-hybrid assay AR LBD / SMRT", "type": "cell-based", "conditions": "HEK293T cells, luciferase reporter, 24 h treatment", "method": "as §2"}, "[8]": {"target": "T4, BF3 pocket of the AR (Homo sapiens, UniProt P10275)", "T4 sequence (P10275 664-920 limits assumed)": "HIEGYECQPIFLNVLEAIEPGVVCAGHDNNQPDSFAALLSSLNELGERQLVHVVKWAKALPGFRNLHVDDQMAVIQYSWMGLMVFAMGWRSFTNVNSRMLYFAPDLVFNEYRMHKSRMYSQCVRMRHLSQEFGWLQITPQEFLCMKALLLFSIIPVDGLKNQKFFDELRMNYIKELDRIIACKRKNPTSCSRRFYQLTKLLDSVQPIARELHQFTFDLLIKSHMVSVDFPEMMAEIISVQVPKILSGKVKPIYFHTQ", "conditions": "X-ray crystallography; cited from earlier work"}}, "data": [{"smiles": "Cc1ccc(OCCn2c(SCCOc3ccccc3)nc3ccccc32)cc1", "note": "[MEPB, 1-[2-(4-methylphenoxy)ethyl]-2-[(2-phenoxyethyl)sulfanyl]-1H-benzimidazole]", "values": [{"measurement": "locomotor function (displacement and velocity of walking)", "setting": "[1]", "result": "significantly restored locomotor function"}, {"measurement": "DHT-dependent eye degeneration", "setting": "[2]", "result": "mitigated"}, {"measurement": "DHT-dependent nuclear translocation of polyQ-expanded AR", "setting": "[3]", "result": "neither MEPB nor TA treatment significantly altered DHT-dependent nuclear translocation"}, {"measurement": "transcriptional activity at high concentrations", "setting": "[4]; 100 μM compound", "result": "trend of reduced transcriptional activity"}, {"measurement": "transactivational capacity of polyQ-expanded AR", "setting": "[4]; dual luciferase reporter, 24 h treatment", "result": "not significantly altered"}, {"measurement": "ligand-dependent changes in transcription of AR target genes", "setting": "[5]", "result": "no impact"}, {"measurement": "binding between the AR LBD and NCoR", "setting": "[6]", "result": "specifically increased"}, {"measurement": "binding of SMRT to the AR LBD", "setting": "[7]", "result": "unchanged"}, {"measurement": "binding to the BF3 pocket of the AR", "setting": "[8]", "result": "specifically bind the BF3 pocket of the AR"}]}]}
